# In patent US10751322B2, “Indole-3-aldehyde for treating dysreactive immune disorders” (Universita′ degli Studi di Perugia, priority 2013, dated 2020):
# Key:
# Candida albicans [1] = experiment: Infection by C. albicans, fungus given intravaginally; format: in vivo, mice; conditions: 18 mg/kg intragastrically daily, 7 days
# Protocol: (§1) For these verifications, cultures were set up of mice stomachs and colons stimulated with 1 or 100 mM of IAld for 24 hours in vitro before determining the transcription of the above indicated genes by means of polymerase reaction. The histograms A-E show the activation (expressed in terms of the number of times the mRNA increases) of the genes Cyp1A1, Cyp1B1, IL-22, IL-10 and IDO1 respectively in the stomach (top diagram) and in the colon (bottom diagram) as a consequence of the stimulation. […] For comparison, also indicated are the values in the absence of stimulation with IAld. […] To assess the therapeutic effect in treating candidiasis, two experimental models were used of infection by C. albicans obtained by administration of the fungus intragastrically (by means of a tube) and intravaginally (by means of tip) respectively. To assess the therapeutic effect in treating colitis, the model used requires the administration of an irritant (dextran sodium sulphate, DDS), through the mouth. The assessment was made on mice C57BL/6 and on mice AhR^−/−, i.e., mice from which the AhR receptor had been artificially removed. The treatment with IAld lasted for 7 days.
# AhR = target: T1, AhR (Mus musculus, UniProt P30561); experiment: AhR-responsive luciferase reporter test of agonist activity; format: cell-based; conditions: cell line H1L1.1c2, FIG. 1
# T1 construct: endogenous in cells; host or cells: H1L1.1c2
# T1 sequence (P30561 10-805 limits assumed): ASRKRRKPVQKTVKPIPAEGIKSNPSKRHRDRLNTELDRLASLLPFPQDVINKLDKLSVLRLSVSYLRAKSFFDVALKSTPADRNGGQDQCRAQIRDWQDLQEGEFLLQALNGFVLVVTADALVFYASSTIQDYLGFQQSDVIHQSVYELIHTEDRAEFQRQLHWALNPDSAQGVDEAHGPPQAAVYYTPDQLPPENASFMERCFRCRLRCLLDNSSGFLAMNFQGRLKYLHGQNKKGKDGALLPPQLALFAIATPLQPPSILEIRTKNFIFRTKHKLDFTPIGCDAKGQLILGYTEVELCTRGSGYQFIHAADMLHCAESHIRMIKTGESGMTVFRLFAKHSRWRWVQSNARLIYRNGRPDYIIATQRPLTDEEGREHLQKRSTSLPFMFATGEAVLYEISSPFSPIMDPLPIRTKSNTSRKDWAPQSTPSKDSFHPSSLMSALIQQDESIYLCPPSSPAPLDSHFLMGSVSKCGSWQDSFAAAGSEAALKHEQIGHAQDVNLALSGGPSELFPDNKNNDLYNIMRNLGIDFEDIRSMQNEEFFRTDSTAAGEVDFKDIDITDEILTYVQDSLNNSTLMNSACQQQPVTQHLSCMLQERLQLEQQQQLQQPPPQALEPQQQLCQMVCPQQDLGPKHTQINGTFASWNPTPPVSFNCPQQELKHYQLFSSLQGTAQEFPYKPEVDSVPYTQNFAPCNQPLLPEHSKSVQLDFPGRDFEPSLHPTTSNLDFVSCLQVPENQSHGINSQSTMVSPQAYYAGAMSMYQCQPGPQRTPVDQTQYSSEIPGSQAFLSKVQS
# T1 sequence (P11499 whole entry partner): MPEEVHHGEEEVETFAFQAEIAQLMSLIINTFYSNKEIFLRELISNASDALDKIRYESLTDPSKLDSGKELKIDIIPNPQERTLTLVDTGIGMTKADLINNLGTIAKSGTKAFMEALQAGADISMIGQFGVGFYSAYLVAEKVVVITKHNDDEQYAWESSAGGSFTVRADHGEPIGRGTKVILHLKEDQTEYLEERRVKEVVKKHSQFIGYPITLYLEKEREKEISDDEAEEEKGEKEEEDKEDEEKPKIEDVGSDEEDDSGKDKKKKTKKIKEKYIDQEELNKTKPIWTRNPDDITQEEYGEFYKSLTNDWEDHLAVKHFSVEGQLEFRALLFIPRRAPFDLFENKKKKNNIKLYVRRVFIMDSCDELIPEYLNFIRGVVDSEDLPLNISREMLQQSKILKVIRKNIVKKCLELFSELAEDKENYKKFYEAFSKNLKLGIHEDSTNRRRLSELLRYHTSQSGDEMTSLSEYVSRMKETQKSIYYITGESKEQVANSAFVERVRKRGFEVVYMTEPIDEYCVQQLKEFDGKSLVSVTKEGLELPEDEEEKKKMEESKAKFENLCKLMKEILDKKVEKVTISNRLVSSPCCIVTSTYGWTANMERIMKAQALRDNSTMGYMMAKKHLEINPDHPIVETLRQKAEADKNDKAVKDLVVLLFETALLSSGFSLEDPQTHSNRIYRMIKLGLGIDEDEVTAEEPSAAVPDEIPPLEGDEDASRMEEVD
# T1 sequence (O08915 whole entry partner): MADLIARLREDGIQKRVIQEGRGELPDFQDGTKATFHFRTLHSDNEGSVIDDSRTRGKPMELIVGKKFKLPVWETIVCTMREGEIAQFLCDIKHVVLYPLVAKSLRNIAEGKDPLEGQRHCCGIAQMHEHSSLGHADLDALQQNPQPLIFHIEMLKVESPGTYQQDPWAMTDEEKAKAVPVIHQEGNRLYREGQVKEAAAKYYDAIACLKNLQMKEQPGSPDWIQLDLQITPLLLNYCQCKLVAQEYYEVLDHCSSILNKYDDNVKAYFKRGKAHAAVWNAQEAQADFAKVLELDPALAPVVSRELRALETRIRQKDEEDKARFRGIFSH
# Protocol: For this test, an AhR-responsive cell line was stimulated (cell line H1L1.1c2 containing a luciferase of firefly sensitive to stably transfected AhR) with IAld, indole-3-acetaldehyde (IAAld), indole-3-acetic acid (IAA) and indole-3-lactic acid (ILA). In a way well known to the technician in the field, the agonist activity was determined by means of luciferase test, and in FIG. 1 the luciferase activity of the different ligands, representative of such agonist activity, has been indicated, on the ordinate, as a percentage of the response induced by 50 nM of formylindolo[3,2-b]carbazole (FICZ) according to the ligand dose, expressed in logarithmic scale on the abscissa.
# Candida albicans [2] = experiment: Infection by C. albicans, fungus given intragastrically; format: in vivo, mice; conditions: 18 mg/kg intragastrically daily, 7 days
# Protocol: as §1
# colitis = experiment: Colitis model induced by dextran sodium sulphate through the mouth; format: in vivo, mice; conditions: 18 mg/kg intragastrically daily, 7 days
# Protocol: as §1
# [3] = tested on: genes Cyp1A1, Cyp1B1, IL-22, IL-10 and IDO1; format: cell-based, mice
# Protocol: as §1
compound,measurement,setting,value
"O=Cc1c[nH]c2ccccc12 [IAld, IH-indole-3-carbaldehyde]",growth of Candida albicans (CFU) at vagina level,"Candida albicans [1]; mice C57BL/6, FIG. 3 diagram C",significant reduction in growth
same,activation of IL-22 and IL-10 in the vagina,"Candida albicans [1]; mice C57BL/6, FIG. 3 histogram B (so in the source)",contemporaneous activation of IL-22 and IL-10
same,therapeutic effect in mice AhR−/− versus C57BL/6,"Candida albicans [1]; vaginal candidiasis, mice AhR−/−",only to be found in mice C57BL/6 and not in mice AhR^−/−
same,dose dependence of AhR-agonist activity,AhR,closely dependent on the dose
same,AhR-agonist activity (luciferase activity as a percentage of the response induced by 50 nM FICZ),"AhR; compared with IAAld, ILA and IAA",substantially comparable to that of IAAld and is superior to that of ILA and IAA
same,therapeutic effect in mice AhR−/− versus C57BL/6,"Candida albicans [2]; gastric candidiasis, mice AhR−/−",only to be found in mice C57BL/6 and not in mice AhR^−/−
same,growth of Candida albicans (CFU) at stomach level,"Candida albicans [2]; mice C57BL/6, FIG. 3 diagram A",significant reduction in growth
same,activation of IL-22 and IL-10 in the stomach,"Candida albicans [2]; mice C57BL/6, FIG. 3 histogram B",contemporaneous activation of IL-22 and IL-10
same,therapeutic effect in mice AhR−/− versus C57BL/6,"colitis; colitis, mice AhR−/−",only to be found in mice C57BL/6 and not in mice AhR^−/−
same,percentage variation in body weight,"colitis; mice C57BL/6 with colitis, FIG. 3 graph E",prevention of the reduction in body weight
same,degree of tissue inflammation (colon histopathology),"colitis; mice C57BL/6 with colitis, FIG. 3 photographs F",improvement in the degree of tissue inflammation
same,cells producing IL-22 (immunofluorescence),"colitis; mice C57BL/6 with colitis, FIG. 3 photographs G",expansion of cells producing IL-22
same,dose dependence of gene activation,[3],strongly dependent on the dose
